From article PMC10386076, “Discovery of RC-752, a Novel Sigma-1 Receptor Antagonist with Antinociceptive Activity: A Promising Tool for Fighting Neuropathic Pain” (Pharmaceuticals, 2023)
Entries after “also recorded” stand apart in the source; their conditions may differ. Like-named read-outs stand apart in the source and are kept apart here.

Key:
[1] = tested on: rats; experiment: Chung's neuropathic pain model (spinal nerve ligation), von Frey mechanical allodynia; type: in vivo, rat
Description: This procedure involves the surgical binding or tying off of the left L5 and L6 spinal nerves in rats and causes long-lasting behavioral signs of mechanical allodynia and ongoing pain. Mechanical allodynia refers to the perception of pain caused by normally non-painful stimuli, such as touch or pressure. […] Mechanical stimulation was then induced using von Frey filaments, a set of calibrated nylon fibers that are used to apply mechanical pressure to the skin or other tissues to measure pain sensitivity. The mechanical threshold for pain was established with the “up and down method”.
ICR male mice weighing 20–25 g (5 weeks old) and SD rats weighing 200–250 g (7 weeks old) were used in the experiments. All the animals were purchased from SAMTACO (Osan-si, Korea). Six mice/group and eight rats/group were used for this study. Four groups of mice were utilized for the assessment of the antinociceptive activity in the formalin test (one vehicle and three doses; 1, 10, and 20 mg/kg given i.p.), while five groups of rats were used for the assessment of the antinociceptive activity in Chung’s neuropathic pain model (one vehicle and four doses; 5, 10, 25 and 50 mg/kg given i.p.). The ICR mice and SD rats were maintained on a 12 hr light–dark cycle (light on between 7:00 p.m. and 7:00 a.m.) and allowed free access to food and water. The temperature and humidity of the animal room were maintained at 22 ± 2 °C and 50 ± 5%, respectively. In this study, we followed the national guidelines for conducting animal experiments. […] All efforts were made to minimize animal suffering and reduce the number of animals used.
Ligation of the left L5 and L6 spinal nerves in the rats was used as an experimental model of neuropathic pain. […] The surgical procedure was performed according to the method described by Kim and Chung [80]. The left L5 spinal nerve was isolated and ligated tightly with 6–0 black silk. The wound was closed in anatomical layers, with the skin being closed with stainless steel wound clips. The animals were then allowed to recover after the surgery. The behavioral signs representing neuropathic pain (mechanical allodynia) were examined in all the rats for 2 weeks postoperatively. The mechanical withdrawal threshold to the application of a von Frey filament (Stoelting, Wood Dale, IL, USA) was measured by using the up–down method [81].The most sensitive area was first determined by poking various areas of the paw with a von Frey hair. Next, the actual test was conducted by gently poking various areas of the spot with the filament. […] The frequency of foot withdrawal expressed as a percentage was used as the index of mechanical allodynia. […] The results were calculated using the one-way analysis of variance (ANOVA) followed by Bonferroni’s post hoc test. […]

[2] = tested on: mice; experiment: Formalin-induced licking paw test; type: in vivo; settings: Mus musculus
Description: This is a model of persistent pain in which the nociceptive response produced by formalin is quantified by measuring the time spent by the mouse licking the injected paw. The intraplantar administration of formalin (2%, 20 μL) produces a biphasic nocifensive behavioral response (i.e., biting or licking the injected hind paw). The acute nociceptive phase, reflecting the chemical activation of sensory C-fibers, lasts for the first 5 min, while the second inflammatory phase takes place between 20 and 30 min and corresponds with the development of nociceptive sensitization in the dorsal horn of the spinal cord.
ICR male mice weighing 20–25 g (5 weeks old) and SD rats weighing 200–250 g (7 weeks old) were used in the experiments. […]
The formalin-induced licking paw test was modified from the method described by Dubuisson and Dennis [79]. […] Each mouse was then placed in an individual clear plastic observational chamber (15 × 15 × 15), and the pain response was recorded for a period of 30 min. The summation of time (in seconds) spent in licking and biting responses of the injected paw during each 5 min block was measured as an indicator of the pain response. The first period (early phase) was recorded 0–5 min after the injection of formalin, and the second period (late phase) was recorded 20–30 min after the injection. […] The data were expressed as mean values (SEM). […]

[3] = In vitro metabolic stability in mouse plasma; type: in vitro ADME; settings: after 240 min of incubation
Description: (§1) The in vitro metabolic stability of compound (R/S)-1d was evaluated in mouse plasma and hepatic microsomes.

[4] = In vitro metabolic stability in mouse liver microsomes; type: in vitro ADME; settings: oxidative conditions
Description: as §1
Mouse liver microsomes (Sigma Aldrich, CD-1 male, pooled) at 0.5 mg/mL were preincubated with the test compound (R/S)-1d dissolved in DMSO at 1 μM in phosphate buffer 50 mM, pH 7.4, and 3 mM MgCl2 for 10 min at 37 °C [75]. The reaction was then started by adding the cofactor mixture solution (NADP, glucose-6-phosphate, glucose-6-phosphate dehydrogenase in 2% NaHCO3). The samples were taken at 0, 10, 30, 45, and 60 min and added to acetonitrile to stop the reaction (n = 3). The samples were then centrifuged, and the supernatant was analyzed by LC-MS/MS to quantify the amount of compound. A control sample without cofactor was always added to check the chemical stability of the test compound. Two reference compounds of known metabolic stability, 7-ethoxycoumarin (7-EC) and propranolol, were present in parallel testing. A fixed concentration of verapamil was added to every sample as an internal standard for LC-MS/MS analyses. The percentage of the area of the test compound remaining at the various incubation times was calculated with respect to the area of the compound at time 0 min.
The intrinsic clearance (Cli) was calculated by the equation: Cli (μL/min/mg) = k/microsomal conc. × 1000 where k is the rate constant (min^−1) and the microsomal protein conc. = 0.5 mg protein/mL. The rate constant k (min^−1), derived for the exponential decay equation (peak area/IS vs. time), was used to calculate the rate of Cli.
The samples were analyzed under the following conditions: UFLC LC-20 Shimadzu coupled with an API 3200 triple-quadrupole (ABSciex); eluents, (phase A) water + 0.1% trifluoroacetic acid (TFA), (phase B) CH3CN + 0.1% TFA; flow rate, 0.3 mL/min; column, Gemini-Nx 5 μm C18 110A (50 × 2.00 mm) at 35 °C; and injection volume, 5 μL. LC–MS/MS analyses were carried out using an ESI(+) interface in a multiple reaction monitoring mode (MRM). The conditions and MRM transitions applied to the compounds are described in Table 3. […]

[5] = tested on: PC12 cells; experiment: NGF-induced neurite outgrowth assay in PC12 cells; type: cell-based; settings: for effect on percentage of differentiated PC12 cells, co-administration with PRE-084: 0.25 μM and 2.5 μM with 10 μM PRE-084, vs PRE-084; for effect on NGF-induced neurite outgrowth, compound alone: 0.25 μM and 2.5 μM, vs NGF
Description: At 80% confluence, the cells were either split to allow a further culture expansion or plated onto 48-well flat-bottom plates previously coated with poly-L-ornithine (Sigma Aldrich, Milan, Italy) at the final concentration of 10 μg/cm^2. The cells were plated at low density (2500 cells/well) to allow proper neurite elongation. The PC12 cells were mechanically detached from the flask to avoid cell-surface receptor cleavage and to preserve the correct binding of NGF to the TrkA receptors. To minimize detachment stress, the cells were left in PM for 24 h to recover. […] PRE-084 (10 µM), an S1R agonist, was used to verify that the effects of the selected compounds were due to the S1R modulation. In CTR conditions, the cells were incubated with the drug vehicle. For all the ligands, two replicates per concentration were performed in at least 3 experiments with different PC12 batches.
After 72 h incubation in DM, the cells were fixed with a 4% paraformaldehyde solution (pH 7.4). To allow the neurite visualization with a bright-field microscope, the cells were stained with the Harris Hematoxylin solution (Sigma Aldrich). After staining, images of six fields per well were acquired with a digital camera linked to a bright-field inverted microscope (Optika) (20× magnification). […] Only the cells bearing a neurite as long as their soma’s diameter were identified as differentiated cells. The number of differentiated cells was expressed as the percentage of differentiated cells over the total number of cells.

[6] = tested on: HeLa cells; experiment: AQP-mediated osmotic water permeability assay (stopped-flow light scattering); settings: pre-treatment 20 μM, heat stress 42 °C 3 h
Description: As an orthogonal assay to determine the functional profile of our compounds, the effect on AQP-mediated water permeability was investigated. AQPs are a family of transmembrane proteins involved in the transport of water and other small molecules (e.g., H2O2) through cell membranes. AQP functions are thus critical in ensuring reactive oxygen species (ROS) scavenging and cell survival. […] Briefly, the osmotic water permeability of HeLa cells was measured by a stopped-flow light scattering method and expressed as a percentage of k relative.
Osmotic water permeability was measured in the HeLa cell suspension by the stopped-flow light scattering method, as previously described. The experiments were performed at 25 °C on the stopped-flow apparatus (RX2000, Applied Photophysics, Leatherhead, UK) with a pneumatic drive accessory (DA.1, Applied Photophysics) straightforwardly coupled with a Varian Cary 50 spectrometer (Varian Australia Pty Ltd., Mulgrave, Australia). Briefly, scattered light intensity with a dead time of 6 ms was recorded at a wavelength of 450 nm. […] To evaluate the effect of the test compounds on water permeability, the HeLa cells were divided into different groups: (1) controls, cells incubated at r.t. (21 °C) in the presence of the same volume of methanol as that of the treated cells; (2) heat-stressed cells, cells heat-treated in a water thermostatic and shacking bath at 42 °C for 3 h; (3) heat-stressed cells pre-treated with the test compounds at a 20 µM final concentration (dissolved in methanol).

Row | Compound | time the antinociceptive effect was extended ([1]; i.p. 50 mg/Kg) | antinociceptive effect (mechanical allodynia) ([1]; i.p. 5 and 10 mg/Kg) | time the antinociceptive effect was sustained ([1]; i.p. 25 and 50 mg/Kg) | antinociceptive effect (mechanical allodynia) ([1]; i.p. 25 and 50 mg/Kg, 30 min after administration) | ED50 ([2]; read-out: ED50, first phase of the formalin test) | ED50 ([2]; mice, i.p. 1, 10, 20 mg/Kg 30 min before formalin, 20–30 min, paw licking time, read-out: ED50, second phase of the formalin test) | compound remaining unaltered [3] | half-life at 1 μM ([4]; male, CD-1, liver microsomes (pooled), pH 7.4, mouse hepatic microsomes 0.5 mg/mL, 1 μM) | Cli ([4]; mouse hepatic microsomes 0.5 mg/mL, 1 μM) | in vitro clearance classification ([4]; mouse hepatic microsomes) | effect on percentage of differentiated PC12 cells, co-administration with PRE-084 ([5]; listed as (R/S)-1d) | effect on NGF-induced neurite outgrowth, compound alone [5] | effect on water permeability in heat-stressed HeLa cells [6] | effect on percentage of differentiated PC12 cells, co-administration with PRE-084 [5]
1 | OCC(CCN1CCCCC1)c1ccc(-c2ccccc2)cc1 (stereo not shown) [Compound 1d, 2-([1,1’-biphenyl]-4-yl)-4-(piperidin-1-yl)butan-1-ol] | up to 90 min | No significative effect | up to 60 min | restore the normal nociceptive functionality | 13 mg/kg | 2.17 mg/kg | approximately 100% | 7.2 ± 0.3 min | 192 ± 7 µL/min/mg | high clearance | significantly reduced; also recorded: most effective | did not significantly enhance | in line with that of S1R antagonists | –
2 | CN(CCC(CO)c1ccc(-c2ccccc2)cc1)Cc1ccccc1 (stereo not shown) [Compound 1c, 3-([1,1’-biphenyl]-4-yl)-N-benzyl-4-hydroxy-N-methylbutanamine] | – | – | – | – | – | – | – | – | – | – | – | did not significantly enhance | in line with that of S1R antagonists | significantly reduced
